Measured values as given in US8410068B2, “Compounds for the treatment or alleviation of edema, and methods for their use” (Index Pharmaceuticals AB, priority 2007, dated 2013).

Columns and labels:
[1] = system: arachidonic acid (AA) induced ear edema; assay: Arachidonic acid (AA) induced ear edema model; assay type: in vivo, mice; conditions: 10 μg one single s.c. injection 20 minutes before AA; compared to PBS control
Method: A stock solution of AA was prepared by diluting AA in acetone, 4 mg/10 μL, and was stored frozen at −80° C. A final working solution, 1 mg/10 μL, in acetone was prepared. The working solution was used within one hour after preparation.
Both outer ears of a non-anesthetized mouse were washed with mild soap (Palmolive, Sweden) using a soft tooth brush, the ears were dried with tissue and cleaned with tissue soaked with acetone. After allowing the acetone to evaporate, TPA or AA was applied on both sides, 10 μL, on each side of the ear with care to cover the whole ear. The mouse was held for 20 seconds to allow the solvent to evaporate.
The ears of non-anesthetized mice were measured at different time points for up to 96 hours after the TPA was administered, or up to 24 hours for the AA model. The first measurements were done before the edema was induced. The thickness was recorded with a spring loaded dial micrometer (Limit, Thickness Gauge, accuracy 0.01 mm, contact area Ø6 mm, Luna AB, Allingsås, Sweden) in triplicates at all time points per ear.
The average thickness for both ears on a mouse was calculated and compared to the average thickness of the ears at the starting time point. The value obtained at the start of the experiment was set as 100%. The peak values and area under the curve (AUC) values for the treatment groups were calculated and compared to the inflamed control group, treated with PBS (set as 100%), and expressed as a percentage change (Δ% AUC).
Area under the curve (AUC) with base line set as 100 was calculated using GraphPad Prism version 4.03 for Windows (GraphPad Software, San Diego Calif. USA, www.graphpad.com).
In addition to the experiments done with the control compounds and IDX0001, all other test compounds were investigated in a similar fashion in the TPA and/or AA ear edema models, where the test compounds were given subcutaneously (10 μg) 20 minutes before induction of edema. The results were expressed as reduction of peak value and reduction of area under curve (AUC) in Table 5.

[2] = system: OVA induced airway inflammation; assay: Ovalbumin (OVA) induced allergic airway inflammation, BAL fluid cell counts; assay type: in vivo, Balb/c mice
Method: Mice were sensitized intraperitoneally with 200 μL OVA/aluminium hydroxide gel (1:3) on day 0 and 12 (see FIG. 6). OVA (chicken egg albumin grade V, Sigma, St. Louis, Mo.) was dissolved in saline and mixed with aluminium hydroxide gel to a concentration of 50 μg/mL by rotation at 4° C. for 3 h. On days 23, 26, 30 and 33 (see FIG. 6), mice were challenged in the lungs by inhalation of aerosolized OVA for 30 minutes using a Batelle exposure chamber. Aerosols were generated by a compressed-air nebulizer (Collison 6-jet) at airflow 7.4 L/min using a nebulizer concentration of 10 mg/mL OVA dissolved in PBS (Sigma, St Louis, Mo., USA). The control group with non-sensitized animals received no other treatment than aerosolized OVA at days 23, 26, 30 and 33.
In this OVA model (FIG. 6), a total of 4 oligonucleotides were tested, IDX9025, IDX9038, IDX9053 (Table 1, SEQ ID NO 2-4) and IDX0150 (Table 3, SEQ ID NO 11). The oligonucleotides were synthesized by biomers.net GmbH, Ulm, Germany and stored frozen at −20° C. The oligonucleotides were diluted with PBS to the working concentration (1,247 μg/μL) and kept at −20° C. until the first day of instillation, thereafter they were placed at 4° C.
In a first experiment, both prophylactic and therapeutic protocols were tested (see FIG. 6). The drug treatment consisted of intranasal instillations of IDX0150 (1,247 μg/μL, provided by InDex Pharmaceuticals AB, Stockholm, Sweden) on days 16 and 21 (prophylactic protocol), on days 30 and 33 (therapeutic protocol A) or on days 30 and 34 (therapeutic protocol B). The instillations in the therapeutic protocols (A & B) on days 30 and 33 were given 4 h after aerosol challenge. The second instillation in protocol B on day 34 was given 24 h after the last aerosol challenge. The drug was administered in 40 μL PBS giving a dose of ˜50 μg/mice (49.88 μg/mice). The two sensitized sham-treatment groups were instilled with PBS, the same total volume as for the treatment groups, according to either the prophylactic protocol (days 16 and 21) or to the therapeutic protocol A (days 30 and 33).
In a second experiment, since administration of IDX0150 in the first experiment using prophylactic protocol (FIG. 6) gave a significant reduction of airway inflammation (FIG. 7), three other substances were tested with the same protocol. The drug treatment consisted of intranasal instillations of IDX9025, IDX9038 and IDX9053 (Table 1) (1,247 μg/μL, provided by InDex Pharmaceuticals AB) on days 16 and 21 (see FIG. 6, prophylactic protocol). All substances were administered in 40 μL PBS giving a dose of ˜50 μg/mice (49.88 μg/mice). The two sensitized sham-treatment groups were instilled with PBS, the same total volume as for the treatment groups, according to the prophylactic protocol (days 16 and 21).
Mice were killed by cervical dislocation 42 h after the last OVA aerosol challenge. The trachea was cannulated with polyethylene tubing (Becton Dickinson, Sparks, Md., USA) and bronchoalveolar lavage (BAL) was performed using 4×1 mL aliquots of ice-cold Hank's balanced salt solution (HBSS) (Sigma, St Louis, Mo., USA). The BAL fluid was centrifuged (400 g, 10 min, 4° C.) and the BAL fluid cells were resuspended in 0.4 mL PBS. The total number of leukocytes counted using tryphan blue exclusion in a Barker chamber. Duplicate Cytospin (Cytospin 3, Shandon, Runcorn, UK) preparations of BAL fluid cells were stained with May Grünewald Giemsa for differential counts, using standard morphological criteria.
Statistical comparisons were performed using One-way analysis of variance (ANOVA) using Dunnett's post hoc correction to compare with sensitized PBS treated control mice (GraphPad Prism 3). Data are shown as mean±standard deviation. P<0.05 was considered significant.

Substance: G*G*A*ACAGTTCGTCCAT*G*G*C (phosphorothioate linkages, as printed in the source, key not given here) [IDX0150, oligonucleotide used as control; * = phosphorothioate modification]
- AUC reduction (%) AA [1]: −89.4%
- migration of eosinophils into the BAL fluid ([2]; prophylactic protocol, 50 μg/animal intranasal on day 16 and 21, P<0.001): significantly reduce
- migration of leukocytes into the BAL fluid ([2]; prophylactic protocol, 50 μg/animal intranasal on day 16 and 21, P<0.05): significantly reduce
- effect on BAL fluid cells, therapeutic arm ([2]; therapeutic protocols, 50 μg intranasal, days 30 and 33 (A) or 30 and 34 (B)): no statistically proven effects
